Laboratory results as given in US9216999B2, “Substituted pyrrolo[2,3-h][1,6]naphthyridines and compositions thereof as JAK inhibitors” (priority 2011, dated 2015).
Read-outs that look alike come from different tables or passages of the source.

Assays:
Assay type in all cases: biochemical
[1] = molecular target: JAK1 (Homo sapiens (Human), UniProt P23458); assay: Enzyme assay (Assay Example^a 1), JAK1; conditions: ATP 100 μM
[2] = molecular target: JAK3 (Homo sapiens (Human), UniProt P52333); assay: Enzyme assay (Assay Example^a 1), JAK3
[3] = molecular target: Tyk2 (Homo sapiens (Human), UniProt P29597); assay: Enzyme assay (Assay Example^a 1), Tyk2; conditions: ATP 100 μM
[4] = molecular target: JAK2 (Homo sapiens (Human), UniProt O60674); assay: Enzyme assay (Assay Example^a 1), JAK2

Sequence of JAK3 (P52333 whole entry): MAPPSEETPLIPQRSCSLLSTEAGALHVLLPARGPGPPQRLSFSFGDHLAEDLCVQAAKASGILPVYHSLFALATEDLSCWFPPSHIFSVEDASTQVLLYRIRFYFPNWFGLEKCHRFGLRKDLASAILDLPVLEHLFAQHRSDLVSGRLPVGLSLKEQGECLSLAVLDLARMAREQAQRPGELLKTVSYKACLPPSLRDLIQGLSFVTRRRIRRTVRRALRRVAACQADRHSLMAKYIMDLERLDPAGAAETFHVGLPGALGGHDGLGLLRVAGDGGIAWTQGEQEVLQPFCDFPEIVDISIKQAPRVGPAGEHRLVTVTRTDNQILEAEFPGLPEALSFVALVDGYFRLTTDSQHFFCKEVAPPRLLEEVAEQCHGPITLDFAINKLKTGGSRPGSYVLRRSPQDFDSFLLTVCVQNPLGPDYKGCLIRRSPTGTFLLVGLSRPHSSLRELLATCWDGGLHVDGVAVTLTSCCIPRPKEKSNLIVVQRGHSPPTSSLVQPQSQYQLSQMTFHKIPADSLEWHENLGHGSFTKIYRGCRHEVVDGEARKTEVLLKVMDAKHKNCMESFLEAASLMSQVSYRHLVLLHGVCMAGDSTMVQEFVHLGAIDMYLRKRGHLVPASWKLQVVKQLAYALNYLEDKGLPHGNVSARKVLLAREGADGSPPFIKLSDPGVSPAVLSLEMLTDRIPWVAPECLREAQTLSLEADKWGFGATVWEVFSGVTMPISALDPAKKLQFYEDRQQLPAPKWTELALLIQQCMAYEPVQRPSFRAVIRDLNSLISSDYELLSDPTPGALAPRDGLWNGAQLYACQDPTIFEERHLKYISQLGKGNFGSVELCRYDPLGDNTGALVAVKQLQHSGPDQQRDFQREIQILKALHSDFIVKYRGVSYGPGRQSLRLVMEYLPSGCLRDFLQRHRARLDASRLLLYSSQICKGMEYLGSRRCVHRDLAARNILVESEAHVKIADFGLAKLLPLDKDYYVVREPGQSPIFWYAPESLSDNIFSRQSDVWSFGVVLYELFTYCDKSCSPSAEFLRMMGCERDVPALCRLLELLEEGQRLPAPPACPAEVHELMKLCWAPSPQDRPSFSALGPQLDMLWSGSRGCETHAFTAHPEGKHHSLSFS
Sequence of Tyk2 (P29597 whole entry): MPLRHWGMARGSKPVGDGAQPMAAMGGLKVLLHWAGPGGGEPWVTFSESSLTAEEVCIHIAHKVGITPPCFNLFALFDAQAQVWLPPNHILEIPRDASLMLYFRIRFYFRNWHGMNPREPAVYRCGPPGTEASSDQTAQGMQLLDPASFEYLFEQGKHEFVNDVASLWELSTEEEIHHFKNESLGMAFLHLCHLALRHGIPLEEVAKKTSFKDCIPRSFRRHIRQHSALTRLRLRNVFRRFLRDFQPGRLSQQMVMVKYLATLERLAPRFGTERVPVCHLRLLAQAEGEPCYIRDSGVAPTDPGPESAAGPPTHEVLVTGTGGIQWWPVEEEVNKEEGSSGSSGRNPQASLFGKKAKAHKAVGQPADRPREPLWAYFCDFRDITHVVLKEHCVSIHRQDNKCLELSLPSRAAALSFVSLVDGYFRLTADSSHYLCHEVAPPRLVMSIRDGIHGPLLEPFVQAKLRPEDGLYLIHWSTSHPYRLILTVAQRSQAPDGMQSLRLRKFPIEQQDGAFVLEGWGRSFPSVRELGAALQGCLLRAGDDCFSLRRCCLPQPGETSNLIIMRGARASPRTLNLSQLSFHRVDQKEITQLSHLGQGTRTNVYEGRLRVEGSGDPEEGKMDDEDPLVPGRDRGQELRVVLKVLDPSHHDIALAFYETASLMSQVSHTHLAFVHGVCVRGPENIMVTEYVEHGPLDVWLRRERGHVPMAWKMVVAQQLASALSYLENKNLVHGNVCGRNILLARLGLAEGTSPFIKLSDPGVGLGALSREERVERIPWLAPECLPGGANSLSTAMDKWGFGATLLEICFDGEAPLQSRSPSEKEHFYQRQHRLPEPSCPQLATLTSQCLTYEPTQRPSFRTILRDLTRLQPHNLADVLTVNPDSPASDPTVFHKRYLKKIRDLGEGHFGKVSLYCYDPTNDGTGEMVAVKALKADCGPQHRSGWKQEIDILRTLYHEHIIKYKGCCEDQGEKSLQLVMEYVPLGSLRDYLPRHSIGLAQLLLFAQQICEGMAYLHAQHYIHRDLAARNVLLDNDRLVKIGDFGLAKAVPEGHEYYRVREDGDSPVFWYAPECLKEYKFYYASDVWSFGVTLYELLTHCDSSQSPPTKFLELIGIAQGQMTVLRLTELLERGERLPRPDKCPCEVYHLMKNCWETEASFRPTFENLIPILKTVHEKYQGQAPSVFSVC

| Structure (SMILES) | IC50 [1] | IC50 ([2]; ATP 100 μM) | IC50 [3] | further results |
| --- | --- | --- | --- | --- |
| FC1(F)CCN(C[C@H]2CC[C@H](c3nnn4cnc5[nH]ccc5c34)CC2)C1 [compound 328, 1-{trans-4-[(3,3-difluoropyrrolidin-1-yl)methyl]cyclohexyl}-7H-pyrrolo[3,2-e][1,2,3]triazolo[1,5-c]pyrimidine] | 0.0073 µM | 0.53 µM | 0.9 µM |  |
| N#Cc1ccc(CNC(=O)[C@H]2CC[C@H](c3nnn4cnc5[nH]ccc5c34)CC2)cc1 [compound 350, trans-N-(4-cyanobenzyl)-4-(7H-pyrrolo[3,2-e][1,2,3]triazolo[1,5-c]pyrimidin-1-yl)cyclohexanecarboxamide] | 0.008 µM | > 1 µM | 0.54 µM |  |
| O=C(Nc1nncs1)N1CCCC(c2nnn3cnc4[nH]ccc4c23)C1 (racemic) [compound 20] |  |  |  | IC50 ([1]; Table^a 154): 0.019 µM; IC50 ([3]; Table^a 154): 0.42 µM |
| OCCN(Cc1ccccc1)C[C@H]1CC[C@H](c2nnn3cnc4[nH]ccc4c23)CC1 [compound 268, 2-({[trans-4-(7H-pyrrolo[3,2-e][1,2,3]triazolo[1,5-c]pyrimidin-1-yl)cyclohexyl]methyl}(benzyl)amino)ethanol] | 0.0044 µM | 0.72 µM | 0.12 µM |  |
| OC1(CNC[C@H]2CC[C@H](c3nnn4cnc5[nH]ccc5c34)CC2)CCCCC1 [compound 313, 1-[({[trans-4-(7H-pyrrolo[3,2-e][1,2,3]triazolo[1,5-c]pyrimidin-1-yl)cyclohexyl]methyl)amino)methyl]cyclohexanol] | 0.0084 µM | > 1 µM | 0.51 µM |  |
| O=S(=O)(C[C@H]1CC[C@H](c2nnn3cnc4[nH]ccc4c23)CC1)c1ccc(F)cc1 [compound 365, 1-(trans-4-{[(4-fluorophenyl)sulfonyl]methyl}cyclohexyl)-7H-pyrrolo[3,2-e][1,2,3]triazolo[1,5-c]pyrimidine] | 0.0054 µM | 0.74 µM | 0.34 µM |  |
| FC(F)(F)c1ccc(CN2CCC(c3nnn4cnc5[nH]ccc5c34)CC2)cc1 [compound 33] |  |  |  | IC50 [4]: 0.019 µM |
| CC1CCN(C(=O)OC(C)(C)C)CC1c1nnn2cnc3[nH]ccc3c12 (stereo not shown) [compound 11] |  |  |  | IC50 ([4]; ATP 100 μM, Table^a 154): 0.34 µM |
| N#CCC[C@H]1CC[C@H](c2nnn3cnc4[nH]ccc4c23)CC1 [compound 441, 3-[trans-4-(7H-Pyrrolo[3,2-e][1,2,3]triazolo[1,5-c]pyrimidin-1-yl)cyclohexyl]propanenitrile] | 0.0016 µM | 0.12 µM | 0.024 µM |  |
| c1cc2c(ncn3nnc(C4CCNCC4)c23)[nH]1 [compound 27] |  |  |  | IC50 [4]: > 1 µM |
| COCCN(C)C[C@H]1CC[C@H](c2nnn3cnc4[nH]ccc4c23)CC1 [compound 325, N-{[trans-4-(7H-pyrrolo[3,2-e][1,2,3]triazolo[1,5-c]pyrimidin-1-yl)cyclohexyl]methyl}-2-methoxy-N-methylethanamine] | 0.011 µM | > 1 µM | 0.88 µM |  |
| Cc1cc(OC(F)(F)F)ccc1NC1CCC(c2nnn3cnc4[nH]ccc4c23)CC1 (stereo not shown) [compound 133] |  |  |  | IC50 ([1]; Table^a 154): 0.12 µM; IC50 [2]: > 1 µM; IC50 ([3]; Table^a 154): > 1 µM |
| O=C(NCC(O)(c1ccc(F)cc1)C(F)(F)F)[C@H]1CC[C@H](c2nnn3cnc4[nH]ccc4c23)CC1 (stereo partly drawn) [compound 347, trans-4-(7H-Pyrrolo[3,2-e][1,2,3]triazolo[1,5-c]pyrimidin-1-yl)-N-[3,3,3-trifluoro-2-(4-fluorophenyl)-2-hydroxypropyl]cyclohexanecarboxamide] | 0.0069 µM | 0.65 µM | > 1 µM |  |
| FC(F)(F)c1cc(CN2CCC(c3nnn4cnc5[nH]ccc5c34)CC2)cc(C(F)(F)F)c1 [compound 47] |  |  |  | IC50 ([1]; Table^a 154): 0.78 µM; IC50 ([3]; Table^a 154): > 1 µM |
| Clc1ccc(CN[C@H]2CC[C@@H](c3nnn4cnc5[nH]ccc5c34)CC2)cc1 [197a, cis-N-(4-chlorobenzyl)-4-(7H-pyrrolo[3,2-e][1,2,3]triazolo[1,5-c]pyrimidin-1-yl)cyclohexanamine] |  |  |  | IC50 ([1]; Table^a 154): 0.016 µM; IC50 ([2]; ATP 100 μM, Table^a 154): > 1 µM; IC50 ([3]; Table^a 154): 0.15 µM |
| Cc1nc(C2CCCCC2)c2c3cc[nH]c3ncn12 [compound 1] | 0.23 µM |  | 0.59 µM | IC50 [2]: 1.4 µM |
| FC(F)(F)C(N[C@H]1CC[C@H](c2nnn3cnc4[nH]ccc4c23)CC1)C(F)(F)F [400b, trans-N-(1,1,1,3,3,3-hexafluoropropan-2-yl)-4-(7H-pyrrolo[3,2-e][1,2,3]triazolo[1,5-c]pyrimidin-1-yl)cyclohexanamine] | 0.042 µM | > 1 µM | 0.84 µM |  |
| c1cc2c(ncn3nnc(C4CCCNC4)c23)[nH]1 (racemic) [compound 15] |  |  |  | IC50 ([4]; ATP 100 μM, Table^a 154): 2.5 µM; IC50 ([3]; Table^a 154): > 1 µM |

| Structure (SMILES) | IC50 [1] | IC50 ([2]; ATP 100 μM) | IC50 [3] | further results |
| --- | --- | --- | --- | --- |
| CC1CCN(C(=O)CC#N)CC1c1nnn2cnc3[nH]ccc3c12 (stereo not shown) [compound 12] |  |  |  | IC50 ([1]; Table^a 154): 0.021 µM; IC50 ([3]; Table^a 154): 0.91 µM |
| O=C1NOC[C@H]1NC[C@H]1CC[C@H](c2nnn3cnc4[nH]ccc4c23)CC1 [compound 288, (R)-4-({[trans-4-(7H-pyrrolo[3,2-e][1,2,3]triazolo[1,5-c]pyrimidin-1-yl)cyclohexyl]methyl}amino)isoxazolidin-3-one] | 0.046 µM |  | 0.37 µM |  |
| CC(C)(C)OC(=O)N1CCC(c2nnn3cnc4[nH]ccc4c23)CC1 [compound 24] |  |  |  | IC50 [4]: 0.51 µM |
| COc1ccc(CN2CCC(c3nnn4cnc5[nH]ccc5c34)CC2)cn1 [compound 170, 1-{1-[(6-methoxypyridin-3-yl)methyl]piperidin-4-yl}-7H-pyrrolo[3,2-e][1,2,3]triazolo[1,5-c]pyrimidine] |  |  |  | IC50 ([1]; Table^a 154): 0.021 µM; IC50 ([2]; ATP 100 μM, Table^a 154): 0.52 µM; IC50 ([3]; Table^a 154): > 1 µM |
| N#Cc1ccc(CCN2CCC(c3nnn4cnc5[nH]ccc5c34)CC2)cc1 [compound 375, 4-{2-[4-(7H-Pyrrolo[3,2-e][1,2,3]triazolo[1,5-c]pyrimidin-1-yl)piperidin-1-yl]ethyl}benzonitrile] | 0.047 µM | > 1 µM | > 1 µM |  |
| FC(F)CN[C@H]1CC[C@H](c2nnn3cnc4[nH]ccc4c23)CC1 [399b, trans-N-(2,2-difluoroethyl)-4-(7H-pyrrolo[3,2-e][1,2,3]triazolo[1,5-c]pyrimidin-1-yl)cyclohexanamine] | 0.0075 µM | > 1 µM | 0.2 µM |  |
| O=C(NCC(F)(F)F)[C@H]1CC[C@H](c2nnn3cnc4[nH]ccc4c23)CC1 [compound 354, trans-4-(7H-pyrrolo[3,2-e][1,2,3]triazolo[1,5-c]pyrimidin-1-yl)-N-(2,2,2-trifluoroethyl)cyclohexanecarboxamide] | 0.0018 µM | 0.69 µM | 0.16 µM |  |
| N#C/C(=C\N1CCC(c2nnn3cnc4[nH]ccc4c23)CC1)c1ccc(Cl)cc1 [compound 235, (Z)-3-[4-(7H-pyrrolo[3,2-e][1,2,3]triazolo[1,5-c]pyrimidin-1-yl)piperidin-1-yl]-2-(4-chlorophenyl)acrylonitrile] | 0.056 µM | > 1 µM | > 1 µM |  |
| CC1(C)CC1NC[C@H]1CC[C@H](c2nnn3cnc4[nH]ccc4c23)CC1 (stereo partly drawn) [compound 290, N-{[trans-4-(7H-pyrrolo[3,2-e][1,2,3]triazolo[1,5-c]pyrimidin-1-yl)cyclohexyl]methyl}-2,2-dimethylcyclopropanamine] | 0.0076 µM | 0.5 µM | 0.27 µM |  |
| CN(C)S(=O)(=O)c1ccc2c(c1)CCN2C[C@H]1CC[C@H](c2nnn3cnc4[nH]ccc4c23)CC1 [compound 190, 1-{[trans-4-(7H-pyrrolo[3,2-e][1,2,3]triazolo[1,5-c]pyrimidin-1-yl)cyclohexyl]methyl}-N,N-dimethylindoline-5-sulfonamide] |  |  |  | IC50 ([1]; Table^a 154): 0.022 µM; IC50 ([2]; ATP 100 μM, Table^a 154): > 1 µM; IC50 ([3]; Table^a 154): 0.61 µM |
| Clc1ccc(CN[C@H]2CC[C@H](c3nnn4cnc5[nH]ccc5c34)CC2)cc1 [197b, trans-N-(4-chlorobenzyl)-4-(7H-pyrrolo[3,2-e][1,2,3]triazolo[1,5-c]pyrimidin-1-yl)cyclohexanamine] |  |  |  | IC50 ([1]; Table^a 154): 0.0054 µM; IC50 ([2]; ATP 100 μM, Table^a 154): 0.52 µM; IC50 ([3]; Table^a 154): 0.11 µM |
| NC(=O)c1ccc(CN2CCC(c3nnn4cnc5[nH]ccc5c34)CC2)cc1 [compound 241, 4-{[4-(7H-pyrrolo[3,2-e][1,2,3]triazolo[1,5-c]pyrimidin-1-yl)piperidin-1-yl]methyl}benzamide] | 0.046 µM | > 1 µM | > 1 µM |  |
| N#Cc1cc(CN2CCC(c3nnn4cnc5[nH]ccc5c34)CC2)ccc1F [compound 223, 5-{[4-(7H-pyrrolo[3,2-e][1,2,3]triazolo[1,5-c]pyrimidin-1-yl)piperidin-1-yl]methyl}-2-fluorobenzonitrile] | 0.015 µM | 0.94 µM | > 1 µM |  |
| Cc1ccc(CN2CCC(c3nnn4cnc5[nH]ccc5c34)CC2)s1 [compound 236, 1-{1-[(5-methylthiophen-2-yl)methyl]piperidin-4-yl}-7H-pyrrolo[3,2-e][1,2,3]triazolo[1,5-c]pyrimidine] | 0.0068 µM | 0.45 µM | > 1 µM |  |
| O=C(OCc1ccccc1)N1CCCC(c2ncn3cnc4[nH]ccc4c23)C1 (racemic) [compound 3] | 0.057 µM | 1.4 µM |  |  |
| FC(F)(F)CN(CC1CC1)[C@H]1CC[C@H](c2nnn3cnc4[nH]ccc4c23)CC1 [compound 413, trans-N-(Cyclopropylmethyl)-4-(7H-pyrrolo[3,2-e][1,2,3]triazolo[1,5-c]pyrimidin-1-yl)-N-(2,2,2-trifluoroethyl)cyclohexanamine] | 0.02 µM | > 1 µM | 0.62 µM |  |
| Fc1ccc(C2(NC[C@H]3CC[C@H](c4nnn5cnc6[nH]ccc6c45)CC3)COC2)cc1 [compound 322, N-{[trans-4-(7H-pyrrolo[3,2-e][1,2,3]triazolo[1,5-c]pyrimidin-1-yl)cyclohexyl]methyl}-3-(4-fluorophenyl)oxetan-3-amine] | 0.0013 µM | 0.2 µM | 0.43 µM |  |
| FC(F)(F)CNC[C@H]1CC[C@H](c2nnn3cnc4[nH]ccc4c23)CC1 [compound 188, N-{[trans-4-(7H-pyrrolo[3,2-e][1,2,3]triazolo[1,5-c]pyrimidin-1-yl)cyclohexyl]methyl}-2,2,2-trifluoroethanamine] |  |  |  | IC50 ([1]; Table^a 154): 0.0012 µM; IC50 ([2]; ATP 100 μM, Table^a 154): 0.11 µM; IC50 ([3]; Table^a 154): 0.063 µM |
